Literature values in patent publication US9943402B2, “Micropatterned intraocular implant” (InSight Innovations, LLC, priority 2008, dated 2018).

Test system: posterior capsule opacification (PCO)
Settings: topical treatment after phacoemulsification

Structure (SMILES) | inhibition of PCO (in words)
O=C(O)Cc1ccccc1Nc1c(Cl)cccc1Cl [diclofenac] | do not appear to inhibit PCO
COc1ccc2c(c1)c(CC(=O)O)c(C)n2C(=O)c1ccc(Cl)cc1 [indomethacin] | do not appear to inhibit PCO
